From ChEMBL document CHEMBL3351860, “Synthesis and SAR of thieno[3,2-b]pyridinyl urea derivatives as urotensin-II receptor antagonists” (Bioorg Med Chem Lett, 2014) come the findings set out here.

The target of one series is T1, Urotensin-2 receptor (Homo sapiens, UniProt Q9UKP6).
T1 sequence (Q9UKP6 whole entry): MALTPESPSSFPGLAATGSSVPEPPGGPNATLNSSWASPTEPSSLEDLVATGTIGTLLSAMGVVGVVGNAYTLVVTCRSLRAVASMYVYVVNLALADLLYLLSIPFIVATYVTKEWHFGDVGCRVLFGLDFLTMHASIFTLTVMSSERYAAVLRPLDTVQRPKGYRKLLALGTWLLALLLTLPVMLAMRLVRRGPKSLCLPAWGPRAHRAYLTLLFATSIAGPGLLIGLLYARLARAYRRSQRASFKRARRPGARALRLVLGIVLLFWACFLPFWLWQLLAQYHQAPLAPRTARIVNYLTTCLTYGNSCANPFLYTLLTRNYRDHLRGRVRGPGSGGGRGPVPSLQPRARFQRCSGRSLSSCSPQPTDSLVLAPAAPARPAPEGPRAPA
The series can be described thus: Displacement of europium-labeled urotensin-II from human urotensin-2 receptor expressed in HEK293 cells by TRF assay. It is filed as cell-based.

Series [1] has as its target T2, Urotensin-2 receptor (Homo sapiens) (UniProt Q9UKP6).
T2 sequence (whole entry): T1 sequence (Q9UKP6 whole entry)
The series can be described thus: Displacement of europium-labeled urotensin-II from human urotensin-2 receptor expressed in HEK293 cells at 10 uM by TRF assay. The series is classed as cell-based.

The nature of series [2]: Metabolic stability in human liver microsomes after 30 mins. The series is classed as ADME. The following applies: read-out: Stability. In general terms: Microsomes from liver hold many membrane-bound enzymes, among them those of drug oxidation.
A short description of series [3]: Metabolic stability in rat liver microsomes after 30 mins. It is filed as ADME. The following applies: read-out: Stability.
The target of another series is CYP3A4 (Homo sapiens, UniProt P08684). The series can be described thus: Inhibition of CYP3A4 (unknown origin) at 10 uM. The series is classed as ADME.
Chain of CYP3A4 (P08684 whole entry): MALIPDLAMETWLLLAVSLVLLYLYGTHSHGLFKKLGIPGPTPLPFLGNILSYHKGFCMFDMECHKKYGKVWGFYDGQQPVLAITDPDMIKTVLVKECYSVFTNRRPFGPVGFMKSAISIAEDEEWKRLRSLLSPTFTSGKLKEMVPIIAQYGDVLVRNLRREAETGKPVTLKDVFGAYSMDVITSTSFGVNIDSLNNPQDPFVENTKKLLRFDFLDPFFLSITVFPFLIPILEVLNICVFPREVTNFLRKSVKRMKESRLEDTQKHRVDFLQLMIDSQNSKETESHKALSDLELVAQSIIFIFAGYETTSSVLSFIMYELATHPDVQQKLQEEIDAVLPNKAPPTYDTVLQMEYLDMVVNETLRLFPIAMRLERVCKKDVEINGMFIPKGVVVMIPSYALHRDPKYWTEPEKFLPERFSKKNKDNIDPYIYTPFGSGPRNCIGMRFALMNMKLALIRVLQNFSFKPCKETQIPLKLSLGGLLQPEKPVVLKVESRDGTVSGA
For series [4], the target named is Voltage-gated inwardly rectifying potassium channel KCNH2 (Homo sapiens, UniProt Q12809). The series can be described thus: Inhibition of human ERG by patch clam assay.
Chain of Voltage-gated inwardly rectifying potassium channel KCNH2 (Q12809 whole entry): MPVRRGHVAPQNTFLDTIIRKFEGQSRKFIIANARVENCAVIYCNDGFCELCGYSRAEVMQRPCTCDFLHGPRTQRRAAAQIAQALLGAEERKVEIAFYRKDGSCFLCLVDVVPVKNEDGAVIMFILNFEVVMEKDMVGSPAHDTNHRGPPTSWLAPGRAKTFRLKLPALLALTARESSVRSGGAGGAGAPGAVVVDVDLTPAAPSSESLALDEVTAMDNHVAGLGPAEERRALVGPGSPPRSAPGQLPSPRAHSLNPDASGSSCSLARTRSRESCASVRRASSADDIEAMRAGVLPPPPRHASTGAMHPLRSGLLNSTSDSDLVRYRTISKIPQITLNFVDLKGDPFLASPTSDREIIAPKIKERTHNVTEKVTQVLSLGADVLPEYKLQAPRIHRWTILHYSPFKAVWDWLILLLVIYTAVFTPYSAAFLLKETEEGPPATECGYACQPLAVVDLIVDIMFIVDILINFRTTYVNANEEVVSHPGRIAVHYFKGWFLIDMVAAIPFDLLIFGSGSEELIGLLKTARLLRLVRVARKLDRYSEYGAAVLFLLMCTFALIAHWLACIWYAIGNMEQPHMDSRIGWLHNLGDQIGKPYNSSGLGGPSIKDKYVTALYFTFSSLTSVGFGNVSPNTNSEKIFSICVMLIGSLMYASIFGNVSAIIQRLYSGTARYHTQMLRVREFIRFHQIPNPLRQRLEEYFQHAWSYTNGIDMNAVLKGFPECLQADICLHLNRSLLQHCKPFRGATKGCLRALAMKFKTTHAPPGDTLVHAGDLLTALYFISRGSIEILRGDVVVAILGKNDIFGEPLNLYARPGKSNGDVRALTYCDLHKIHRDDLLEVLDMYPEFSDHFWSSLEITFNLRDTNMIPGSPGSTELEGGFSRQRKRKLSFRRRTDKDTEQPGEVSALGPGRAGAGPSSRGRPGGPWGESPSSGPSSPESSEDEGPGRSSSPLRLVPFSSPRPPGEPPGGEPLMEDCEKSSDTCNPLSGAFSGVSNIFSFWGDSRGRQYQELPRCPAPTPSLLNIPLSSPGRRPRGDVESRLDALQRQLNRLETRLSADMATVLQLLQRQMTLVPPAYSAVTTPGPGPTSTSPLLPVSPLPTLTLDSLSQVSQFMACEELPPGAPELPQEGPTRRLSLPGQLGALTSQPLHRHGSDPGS
Series [5] is described as follows: Permeability of the compound by PAMPA assay. The series is classed as ADME. Particulars: read-out: permeability. (In general: In PAMPA a lipid-coated filter parts donor from acceptor wells.)

The compound `O=C(NCCN1CCC(O)(Cc2ccccc2)CC1)Nc1ccnc2ccsc12` yielded an IC50 on Urotensin-2 receptor of 36 nM.
Still for that read-out and setting: as for `Cc1cccc(CC2(O)CCN(CCNC(=O)Nc3ccnc4ccsc34)CC2)c1`, the figure is 140 nM.
Same read-out and setting: as for `Cc1cc2nccc(NC(=O)NCCN3CCC(O)(Cc4ccccc4)CC3)c2s1`, the figure is 78 nM; as for `O=C(NCCN1CCC(O)(Cc2ccccc2)CC1)Nc1ccnc2ccoc12`, 450 nM.
As to `CCc1cc(NC(=O)NCCN2CCC(O)(Cc3ccccc3)CC2)c2sccc2n1`, on Urotensin-2 receptor, the IC50 was 60 nM.
With `O=C(NCCN1CCC(O)(Cc2ccccc2)CC1)Nc1ccnc2sccc12`, on Urotensin-2 receptor, the IC50 was found to be 930 nM.
Regarding `O=C(NCCN1CCC(O)(Cc2ccccc2)CC1)Nc1ccnc2cc(-c3ccccc3)sc12`, the inhibition in series [1] is 47.3%.
`O=C(NCCN1CCC(O)(Cc2ccccc2Br)CC1)Nc1ccnc2ccsc12` showed a half-maximal inhibitory concentration (IC50) at Urotensin-2 receptor of 20 nM.
In the case of `O=C(NCCN1CCC(O)(Cc2ccccc2)CC1)Nc1ccnc2c(Br)csc12`, the IC50 on Urotensin-2 receptor came to 3220 nM.
The compound `Cc1ccc(CC2(O)CCN(CCNC(=O)Nc3ccnc4ccsc34)CC2)cc1` had an IC50 on Urotensin-2 receptor of 190 nM.
On Urotensin-2 receptor, `Cc1cc(NC(=O)NCCN2CCC(O)(Cc3ccccc3)CC2)c2cnn(C)c2n1` gave an IC50 of 220 nM.
The same measure, in the same setting: as for `Cc1cc(NC(=O)NCCN2CCC(O)(Cc3ccccc3)CC2)c2sccc2n1`, the figure is 26 nM.
`O=C(NCCN1CCC(O)(Cc2ccccc2)CC1)Nc1cc(-c2ccccc2)nc2ccsc12` registered an inhibition in series [1] of 25.4%.
On to `Cn1cnc2c(NC(=O)NCCN3CCC(O)(Cc4ccccc4)CC3)ccnc21`, for which, at Urotensin-2 receptor, the IC50 came out at 2140 nM.
`O=C(NCCN1CCC(O)(Cc2ccc(F)cc2)CC1)Nc1ccnc2ccsc12`: the IC50 turned out to be 13 nM at Urotensin-2 receptor and 5 µM in series [4]. Also, the remaining at 0.5 h in series [2] amounted to 52%; in series [3], 100%. Further, at CYP3A4, the inhibition at 10 µM was > 10%. In series [5], the Papp is 0.027 ×10⁻⁶ cm/s.
On to `Cn1ccc2nccc(NC(=O)NCCN3CCC(O)(Cc4ccccc4)CC3)c21`, for which, on Urotensin-2 receptor, the IC50 was found to be 600 nM.
Turning to `O=C(NCCN1CCC(O)(Cc2ccccc2)CC1)Nc1cc(Cl)nc2ccsc12`, the inhibition in series [1] came to 25.6%.
Regarding `Cc1ccccc1CC1(O)CCN(CCNC(=O)Nc2ccnc3ccsc23)CC1`, the IC50 on Urotensin-2 receptor is 20 nM.
On the same count and under the same terms, as for `O=C(NCCN1CCC(O)(Cc2cccc(Br)c2)CC1)Nc1ccnc2ccsc12`, the figure is 42 nM.
Turning to `Cc1csc2c(NC(=O)NCCN3CCC(O)(Cc4ccccc4)CC3)ccnc12`, the IC50 on Urotensin-2 receptor was 1230 nM.
The same measure, in the same setting: as for `Cn1ccc2c(NC(=O)NCCN3CCC(O)(Cc4ccccc4)CC3)ccnc21`, the figure is 160 nM.

In general, IC50 refers to the concentration that inhibits the measured activity by half. Read a low IC50 as inhibition by little substance. As a reminder, the inhibition is how much of the control response was suppressed.
